Columns and labels:
[1] = system: human renal proximal tubule cells; test: gamma-H2AX and caspase 3/7 in renal proximal tubule cells with cisplatin; assay type: cell-based
Protocol: Normal renal proximal tubule epithelial cells were obtained from American Type Culture Collection (ATCC, Manassas, Va.). Cells were grown in an incubator at 37° C. in a humidified atmosphere of 5% CO2 in Renal Epithelial Cell Basal Media (ATCC) supplemented with Renal Epithelial Cell Growth Kit (ATCC) in 37° C. humidified incubator. […] For the γ-H2AX assay, cells were fixed, permeabilized, and stained with anti-γ-H2AX as per the γ-H2AX Flow Kit (Millipore) and quantitated by flow cytometry. Data was analyzed using FlowJo 2.2 software developed by TreeStar, Inc. Caspase 3/7 activation was measured using the Caspase-Glo 3/7 Assay System (Promega, Madison, Wis.) by following the manufacturer's instructions.

blood cell counts = test: 5FU-induced myelosuppression, single dose; assay type: in vivo, mouse; conditions: 150 mg/kg oral, 30 minutes before 5FU 150 mg/kg i.p.
Protocol: Complete blood cell counts were measured every two days starting on day six.

[2] = system: human renal proximal tubule cells; test: Cell cycle of renal proximal tubule cells with etoposide or cisplatin; assay type: cell-based; conditions: 10-1000 nM in combination with etoposide or cisplatin
Protocol: The ability of Cdk4/6 inhibitors to protect human renal proximal tubule cells from chemotherapy induced DNA damage was analyzed using etoposide and cisplatin. […] At the conclusion of the experiment, cells were harvested, fixed, and stained with propidium iodide (a DNA intercalator), which fluoresces strongly red (emission maximum 637 nm) when excited by 488 nm light. Samples were run on Dako Cyan flow cytometer.

[3] = system: 456 (395 non-mutant) kinases; test: DiscoveRx KINOMEscan profiling; assay type: binding; conditions: 1000 nM
Protocol: The compound was screened using a single concentration of 1000 nM (>1000 times the 1050 on Cdk4). Results from this screen confirmed the high potency against Cdk4 and high selectivity versus Cdk2.

[4] = system: telomerized human diploid fibroblasts (tHDFs; tHS68); test: Protection from chemotherapy-induced cell death, DNA damage and caspase activation in fibroblasts; assay type: cell-based
Protocol: Cell survival was determined by Cell TiterGlo assay per manufacturer's recommendations. For both γ-H2AX and caspase 3/7 assays, cells were plated and allowed to become adherent for 24 hours. […] For γ-H2AX, cells were harvested for analysis 8 hours after chemotherapy exposure. For the γ-H2AX assay, cells were fixed, permeabilized, and stained with anti-γ-H2AX as per the γ-H2AX Flow Kit (Millipore) and quantitated by flow cytometry. Data was analyzed using FlowJo 2.2 software developed by TreeStar, Inc. For the in vitro caspase 3/7 assay, cells were harvested 24 hours post chemotherapy treatment. Caspase 3/7 activation was measured using the Caspase-Glo® 3/7 Assay System (Promega) per manufacturer's recommendations.

[5] = system: RB-negative SCLC cell lines (H69, H82, H209, H345, NCI417, SHP-77); test: EdU proliferation, RB-negative SCLC cell lines; assay type: cell-based, human; conditions: 24 hours treatment
Protocol: (§1) The effect of Cdk4/6 inhibition on proliferation was measured by EdU incorporation. An RB-intact, Cdk4/6-dependent cell line (WM2664 or tHS68) and a panel of RB-negative SCLC cell lines (H69, H82, H209, H345, NCI417, or SHP-77) were analyzed for growth inhibition by the various CDK4/6 inhibitors.

[6] = system: Rb phosphorylation at Ser780 and Ser807/811; test: Rb phosphorylation western blot; assay type: cell-based; conditions: 300 nM; Rb-dependent cell lines (tHS68, WM2664); by 16 hours post exposure
Protocol: The Cdk4/6-cyclin D complex is essential for progression from G1 to the S-phase of the DNA cell cycle. This complex phosphorylates the retinoblastoma tumor suppressor protein (Rb). […] Samples were lysed and protein was assayed by western blot analysis. Rb phosphorylation was measured at two sites targeted by the Cdk4/6-cyclin D complex, Ser780 and Ser807/811 using species specific antibodies.

[7] = Metabolic stability in liver microsomes; assay type: in vitro ADME; conditions: each of the species tested (human, monkey, dog, rat, mouse); 1 uM
Protocol: Human, mouse, and dog liver microsomes were purchased from Xenotech, and Sprague-Dawley rat liver microsomes were prepared by Absorption Systems. The reaction mixture comprising 0.5 mg/mL of liver microsomes, 100 mM of potassium phosphate, pH 7.4, 5 mM of magnesium chloride, and 1 uM of test compound was prepared. The test compound was added into the reaction mixture at a final concentration of 1 uM. An aliquot of the reaction mixture (without cofactor) was incubated in shaking water bath at 37 deg. C. for 3 minutes. The control compound, testosterone, was run simultaneously with the test compound in a separate reaction. The reaction was initiated by the addition of cofactor (NADPH), and the mixture was then incubated in a shaking water bath at 37 deg. C. Aliquots (100 μL) were withdrawn at 0, 10, 20, 30, and 60 minutes for the test compound and 0, 10, 30, and 60 minutes for testosterone. […] Test compound samples were analyzed using the Orbitrap high resolution mass spectrometer to quantify the disappearance of parent test compound and detect the appearance of metabolites. […] Half-lives were calculated using GraphPad software, fitting to a single-phase exponential decay equation.
When calculated half-life was longer than the duration of the experiment, the half-life was expressed as >the longest incubation time. The calculated half-life is also listed in parentheses. […]

[8] = system: Rb-positive cell line (WM2664 or tHS68); test: EdU proliferation, RB-intact Cdk4/6-dependent cell line; assay type: cell-based; conditions: 24 hours treatment
Protocol: as §1

Compound: CN1CCN(c2ccc(Nc3ncc4cc5n(c4n3)C3(CCCCC3)CNC5=O)nc2)CC1 [T, 2′-((5-(4-methylpiperazin-1-yl)pyridin-2-yl)amino)-7′,8′-dihydro-6′H-spiro[cyclohexane-1,9′-pyrazino[1′,2′:1,5]pyrrolo[2,3-d]pyrimidin]-6′-one]
- caspase 3/7 activation ([1]; cisplatin 25 uM, 50 uM, or 100 uM): dose-dependent reduction in caspase 3/7 activation
- DNA damage as measured by gamma-H2AX formation ([1]; in combination with 25 uM cisplatin): attenuated DNA damage
- recovery of blood cell lineages after 5FU (blood cell counts): more rapid recovery
- cell cycle distribution [2]: decrease in the percentage of S-phase cells, with a corresponding rise in the percentage of cells in the G0-G1 phase
- number of 395 non-mutant kinases inhibited ([3]; inhibitory threshold 65%): 92 (23.3%)
- number of 395 non-mutant kinases inhibited ([3]; inhibitory threshold 90%): 31 (7.8%)
- number of 395 non-mutant kinases inhibited ([3]; inhibitory threshold 99%): 6 (1.5%)
- cell survival (Cell TiterGlo) ([4]; in the presence of etoposide (5 uM) or carboplatin (100 uM)): dose dependent cell survival
- DNA damage as measured by gamma-H2AX formation ([4]; prior to carboplatin, doxorubicin, etoposide, camptothecin or paclitaxel): attenuated DNA damage
- caspase 3/7 activation ([4]; prior to carboplatin, doxorubicin, etoposide, camptothecin, and paclitaxel): robust decrease in caspase 3/7 activation in a dose-dependent manner
- growth (cells in S-phase by EdU) [5]: does not affect the growth
- Rb phosphorylation [6]: blocks Rb phosphorylation
- half-life in liver microsomes [7]: shorter half-life than PD0332991
- proliferation (cells in S-phase by EdU) [8]: inhibits
